From patent US20220144838A1, “Compounds as Inhibitors of Macrophage Migration Inhibitory Factor” (NANJING IMMUNOPHAGE BIOTECH CO., LTD., priority 2019, published 2022) come the findings set out here.

This assay has as its system 4T1 cells. Put plainly: 4T1 breast cancer syngeneic mouse model. The class given is in vivo, Balb/c mice. The conditions noted are these: 4T1 model; IMG-321 20 mg/kg b.i.d. combined with gemcitabine 3 mg/kg once every 10 days. On the procedure:
Female Balb/c mice (5-6 weeks old) were purchased from Charles River Laboratories (Hollister, Calif.). Animals were housed and treated in accordance with Institutional Animal Care and Use Committee guidelines. For the generation of 4T1 breast cancer model, 1×10^5 4T1 cells were injected orthotopically into the mammary fat pad. For the generation of lung cancer model, 1×10^5 LLC cells were injected subcutaneously. For the generation of murine melanoma model, 1×10^5 B16-F10 cells were injected subcutaneously. Test compounds were administered by I.P. injection in a dose range of 10-100 mg/kg starting on study day 1 (7 days after tumor implantation). Control groups received vehicle (water) twice daily by I.P. injection. Tumor volume measured by digital caliper (length×width×width/2) and body weight were recorded three times per week. Animals were euthanized when tumors necrotized or volumes reached 2000 mm3.
One-way Anova, student's T test, and Mann-Whitney test performed by GraphPad5 PRISM software (GraphPad Software, Inco, San Diego, Calif., USA) were used according to different experimental conditions. P value<0.05 was considered statistically significant. Significance is indicated in the figures by asterisks *p<0.05, **p<0.01.
Female Balb/C mice (8 weeks old) were injected with 1×10^5 4T1 cells into the mammary fat pad. […] Tumor volume was measured by digital caliper (length×width×width/2). […]

For `Nc1ccn([C@@H]2O[C@H](CO)[C@@H](O)C2(F)F)c(=O)n1` [Gemcitabine, gemcitabine], the “breast cancer growth (tumor volume), combination” value is reported as “Synergistically Inhibited Breast Cancer Growth”.
